Legend:
recombinant human PKLR = molecular target: T1, recombinant human PKLR (Homo sapiens, UniProt P30613); experiment: Human PKLR activation assay (Kinase-Glo Plus luminescent detection of generated ATP); type: biochemical; details: for EC50: activation of recombinant human PKLR, 4-parameter logistic fit, read-out: hPKLR EC50; for Emax: read-out: hPKLR Emax (%)
T1 construct: His (N); purchased R&D Systems
Method: Compound activation of recombinant human PKLR pyruvate kinase activity was determined by biochemical assay. N-terminal His-tagged enzyme was sourced from R&D Systems and its substrates phosphoenolpyruvate (PEP) and ADP from Sigma-Aldrich and 2Bscientific Ltd, respectively. The Kinase-Glo® Plus luminescence assay was from Promega. All other reagents were from Sigma-Aldrich. Test Compounds were prepared as 10 mM DMSO stocks and dilution series prepared in DMSO for direct dilution into Assay Buffer comprising 50 mM imidazole, 50 mM KCl, 7 mM MgCl2, 0.01% Tween20, 0.05% BSA (pH 7.2).
Human PKLR was diluted into Assay Buffer to a final concentration of 5 pM. Enzyme-Assay Buffer mix was dispensed into 384-well shallow-well white-walled plates and Test Compounds added by acoustic dispense (Echo®, Labcyte Inc).
After 60 minutes' incubation on an orbital shaker (300 rpm, 26° C.), enzyme activity was quantified by the luminescent detection of generated ATP. Kinase-Glo® Plus reagent was added to each well and the plates incubated for a further 15 minutes on an orbital shaker in the dark (300 rpm, 26° C.) before luminescence measurement on a plate reader (PHERAstar® FSX, BMG Labtech).
Percentage activation was calculated by normalising […] signals to plate LOW (DMSO vehicle) and HIGH (5 μM TEPP-46) controls. EC50 and Emax values were determined from 4-parameter logistic fits of compound concentration-response curves.

recombinant human PKM2 = molecular target: T2, recombinant human PKM2 (Homo sapiens, UniProt P14618); experiment: Human PKM2 activation assay (Kinase-Glo Plus luminescent detection of generated ATP); type: biochemical; details: for Emax: read-out: hPKM2 Emax; for EC50: recombinant human PKM2 activation, 4-parameter logistic fit, read-out: hPKM2 EC50
T2 construct: His (N); purchased R&D Systems
T2 sequence (P14618 2-531 limits assumed): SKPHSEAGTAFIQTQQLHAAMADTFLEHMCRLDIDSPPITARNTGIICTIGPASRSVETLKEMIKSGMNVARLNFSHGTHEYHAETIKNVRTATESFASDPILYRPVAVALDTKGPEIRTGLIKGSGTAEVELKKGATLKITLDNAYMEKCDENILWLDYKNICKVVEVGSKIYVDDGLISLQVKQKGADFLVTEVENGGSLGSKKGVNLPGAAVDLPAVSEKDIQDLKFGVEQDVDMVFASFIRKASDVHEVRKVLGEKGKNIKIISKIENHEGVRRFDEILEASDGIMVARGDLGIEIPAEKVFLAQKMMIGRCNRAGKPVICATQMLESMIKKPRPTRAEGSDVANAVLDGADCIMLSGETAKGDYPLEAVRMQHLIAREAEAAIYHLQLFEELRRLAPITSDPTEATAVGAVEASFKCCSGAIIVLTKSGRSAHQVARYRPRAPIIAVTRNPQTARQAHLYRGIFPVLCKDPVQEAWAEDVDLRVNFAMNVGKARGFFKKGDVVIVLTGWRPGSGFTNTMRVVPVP
How it was run: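 N-His-tagged recombinant hPKM2 ([…]) with PEP and ADP was incubated with compound for 60 min at 26 °C, shaking, in 50 mM imidazole, 50 mM KCl, 7 mM MgCl2, 0.01% Tween20, 0.05% BSA, pH 7.2. ATP produced was read by Kinase-Glo Plus luminescence after 15 min.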

[1] = percentage activation normalised to DMSO vehicle (LOW) and 5 μM TEPP-46 (HIGH) controls
[2] = percentage activation normalised to DMSO vehicle (LOW) and 5 μM TEPP-46 (HIGH)

T1 sequence (P30613 whole entry): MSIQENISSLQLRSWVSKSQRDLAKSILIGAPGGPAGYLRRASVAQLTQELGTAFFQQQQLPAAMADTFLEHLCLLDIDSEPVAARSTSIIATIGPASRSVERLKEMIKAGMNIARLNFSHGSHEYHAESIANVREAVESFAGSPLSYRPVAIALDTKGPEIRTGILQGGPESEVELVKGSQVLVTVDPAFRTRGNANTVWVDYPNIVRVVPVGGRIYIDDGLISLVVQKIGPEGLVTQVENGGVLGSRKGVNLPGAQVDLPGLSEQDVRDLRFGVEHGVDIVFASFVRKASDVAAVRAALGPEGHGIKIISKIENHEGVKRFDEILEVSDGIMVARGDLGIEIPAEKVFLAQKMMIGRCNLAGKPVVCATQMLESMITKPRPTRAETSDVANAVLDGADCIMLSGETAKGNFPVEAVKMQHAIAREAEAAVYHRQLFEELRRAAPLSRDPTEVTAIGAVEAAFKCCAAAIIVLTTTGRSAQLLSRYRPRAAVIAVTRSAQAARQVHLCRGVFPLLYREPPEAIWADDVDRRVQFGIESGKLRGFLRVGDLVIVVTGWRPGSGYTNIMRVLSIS

| Structure (SMILES) | EC50 (recombinant human PKLR) [nM] | Emax (recombinant human PKLR; [1]) [%] | Emax (recombinant human PKM2; [2]) [%] | EC50 (recombinant human PKM2) [nM] | hPKLR Emax (%) (recombinant human PKLR; [1]) | hPKM2 Emax (recombinant human PKM2; [2]) [%] |
| --- | --- | --- | --- | --- | --- | --- |
| Cc1cccc(Cn2ncc3cc(S(=O)(=O)c4cn[nH]c4)ccc3c2=O)n1 [Example 238, 6-((1H-pyrazol-4-yl)sulfonyl)-2-((6-methylpyridin-2-yl)methyl)phthalazin-1(2H)-one] | 14.4 | 127 | 108 | 125 |  |  |
| O=c1c2ccc(S(=O)(=O)c3ccccc3)cc2cnn1Cc1n[nH]cc1F [Example 110, 2-((4-fluoro-1H-pyrazol-3-yl)methyl)-6-(phenylsulfonyl)phthalazin-1(2H)-one] | 29.6 | 118 | 119 | 68.6 |  |  |
| O=c1c2ccc(S(=O)(=O)c3cnn(C4CC4)c3)cc2cnn1Cc1ccn(C2CC2)n1 [Example 196, 2-((1-cyclopropyl-1H-pyrazol-3-yl)methyl)-6-((1-cyclopropyl-1H-pyrazol-4-yl)sulfonyl)phthalazin-1(2H)-one] | 17 | 120 | 98.9 | 47.6 |  |  |
| Cn1ccc(Cn2ncc3cc(S(=O)(=O)c4cnn(C5CC5)c4)ccc3c2=O)n1 [Example 194, 6-(1-cyclopropyl-1H-pyrazol-4-ylsulfonyl)-2-((1-methyl-1H-pyrazol-3-yl)methyl)phthalazin-1(2H)-one] | 106 | 112 | 113 | 77.4 |  |  |
| Cn1cc(S(=O)(=O)c2ccc3c(=O)n(Cc4cccc(C5CC5)n4)ncc3c2)cn1 [Example 275, 2-((6-cyclopropylpyridin-2-yl)methyl)-6-((1-methyl-1H-pyrazol-4-yl)sulfonyl)phthalazin-1(2H)-one] | 19.5 | 120 | 95.9 | 50.5 |  |  |
| COc1ccc(S(=O)(=O)c2ccc3c(=O)n(Cc4cccn(CCO)c4=O)ncc3c2)cc1 [Example 5, 2-((1-(2-hydroxyethyl)-2-oxo-1,2-dihydropyridin-3-yl)methyl)-6-(4-methoxyphenylsulfonyl)phthalazin-1(2H)-one] | 19.3 | 111 | 102 | 60.7 |  |  |
| Cc1[nH]nc(Cn2ncc3cc(S(=O)(=O)c4cn[nH]c4)ccc3c2=O)c1Cl [Example 314] | 4.27 | 114 | 94.9 | 46.3 |  |  |
| Cc1cccc(Cn2ncc3cc(S(=O)(=O)c4cnn(C5CC5)c4)ccc3c2=O)n1 [Example 259, 6-((1-cyclopropyl-1H-pyrazol-4-yl)sulfonyl)-2-((6-methylpyridin-2-yl)methyl)phthalazin-1(2H)-one] | 13.1 | 123 | 96.7 | 46.1 |  |  |
| O=c1c2ccc(S(=O)(=O)c3ccc4occc4n3)cc2cnn1Cc1cc[nH]n1 [Example 223, 2-((1H-pyrazol-3-yl)methyl)-6-(furo[3,2-b]pyridin-5-ylsulfonyl)phthalazin-1(2H)-one] | 4.9 | 132 | 107 | 45 |  |  |
| Cc1nc(S(=O)(=O)c2ccc3c(=O)n(Cc4cc[nH]n4)ncc3c2)cs1 [Example 320] | 14.8 | 131 | 99.6 | 120 |  |  |
| O=c1c2ccc(S(=O)(=O)c3ccc4c(c3)OCCO4)cc2cnn1Cc1ccn(CCO)n1 [Example 206, 6-((2,3-dihydrobenzo[b][1,4]dioxin-6-yl)sulfonyl)-2-((1-(2-hydroxyethyl)-1H-pyrazol-3-yl)methyl)phthalazin-1(2H)-one] | 10.3 | 128 | 98.7 | 50 |  |  |
| O=c1c2ccc(S(=O)(=O)c3ccc4c(c3)CCO4)cc2cnn1Cc1cc[nH]n1 [Example 203, 2-((1H-pyrazol-3-yl)methyl)-6-((2,3-dihydrobenzofuran-5-yl)sulfonyl)phthalazin-1(2H)-one] | 2.4 | 123 | 114 | 35.3 |  |  |
| O=c1c2ccc(S(=O)(=O)c3ccc4c(c3)NCCO4)cc2cnn1Cc1cc[nH]n1 [Example 221, 2-((1H-pyrazol-3-yl)methyl)-6-((3,4-dihydro-2H-benzo[b][1,4]oxazin-6-yl)sulfonyl)phthalazin-1(2H)-one] | 3.4 | 134 | 105 | 42.8 |  |  |
| COc1ccc(Cn2ncc3cc([S@@](=N)(=O)c4ccc5c(c4)CCO5)ccc3c2=O)cn1 (single isomer, unassigned) [Example 128] | 7.2 | 132 | 80.8 | 34.5 |  |  |
| COc1ccc([S@@](=N)(=O)c2ccc3c(=O)n(Cc4ccc(OC)nc4)ncc3c2)cc1 (single isomer, unassigned) [Example 191] | 14 |  |  | 85.6 | 133 | 91.2 |
| Nc1cccc(Cn2ncc3cc(S(=O)(=O)c4ccccc4)ccc3c2=O)c1 [Example 141, 2-(3-aminobenzyl)-6-(phenylsulfonyl)phthalazin-1(2H)-one] | 8 | 108 | 113 | 78.3 |  |  |
| Cc1cc(F)c(Cn2ncc3cc(S(=O)(=O)c4cn[nH]c4)ccc3c2=O)nc1C [Example 321] | 6.57 | 134 | 100 | 73.4 |  |  |
| COc1ccc(Cn2ncc3cc(S(=O)(=O)c4ccc(C)cc4)ccc3c2=O)cn1 [Example 150, 2-((6-methoxypyridin-3-yl)methyl)-6-tosylphthalazin-1(2H)-one] | 6.4 | 85.4 | 90.4 | 44.3 |  |  |
| O=c1c2ccc(S(=O)(=O)c3cn[nH]c3)cc2cnn1Cc1ccc2occc2n1 [Example 298, 6-((1H-pyrazol-4-yl)sulfonyl)-2-(furo[3,2-b]pyridin-5-ylmethyl)phthalazin-1(2H)-one] | 2.65 | 118 | 108 | 19.6 |  |  |
| COc1ccc(S(=O)(=O)c2ccc3c(=O)n(Cc4ccn(C5CC5)n4)ncc3c2)cn1 [Example 205, 2-((1-cyclopropyl-1H-pyrazol-3-yl)methyl)-6-((6-methoxypyridin-3-yl)sulfonyl)phthalazin-1(2H)-one] | 8 | 115 | 120 | 59.2 |  |  |
| COc1ccc(S(=O)(=O)c2ccc3c(=O)n(Cc4cccc(N)c4)ncc3c2)cc1 [Example 142, 2-(3-aminobenzyl)-6-((4-methoxyphenyl)sulfonyl)phthalazin-1(2H)-one] | 4.1 | 108 | 112 | 25.8 |  |  |
| COc1ccc(Cn2ncc3cc(S(=O)(=O)c4cnn(CCO)c4)ccc3c2=O)cn1 [Example 271, 6-((1-(2-hydroxyethyl)-1H-pyrazol-4-yl)sulfonyl)-2-((6-methoxypyridin-3-yl)methyl)phthalazin-1(2H)-one] | 26.4 | 119 | 81.3 | 54.5 |  |  |
| O=c1c2ccc(S(=O)(=O)c3ccc4occc4n3)cc2cnn1Cc1ccn(C2CC2)n1 [Example 256, 2-((1-cyclopropyl-1H-pyrazol-3-yl)methyl)-6-(furo[3,2-b]pyridin-5-ylsulfonyl)phthalazin-1(2H)-one] | 3.33 | 136 | 95.5 | 31.7 |  |  |
| CC(O)c1nc(S(=O)(=O)c2ccc3c(=O)n(Cc4ccc5c(n4)CCO5)ncc3c2)cs1 (stereo not drawn) [Example 327] | 3.71 | 124 | 10 | 36.9 |  |  |
| O=c1c2ccc(S(=O)(=O)c3cnn(CCO)c3)cc2cnn1Cc1cc[nH]n1 [Example 241, 2-((1H-pyrazol-3-yl)methyl)-6-((1-(2-hydroxyethyl)-1H-pyrazol-4-yl)sulfonyl)phthalazin-1(2H)-one] | 27.5 | 129 | 106 | 118 |  |  |
| Cn1cc(S(=O)(=O)c2ccc3c(=O)n(Cc4cc[nH]n4)ncc3c2)cn1 [Example 240, 2-((1H-pyrazol-3-yl)methyl)-6-((1-methyl-1H-pyrazol-4-yl)sulfonyl)phthalazin-1(2H)-one] | 30.3 | 125 | 107 | 159 |  |  |
| Cn1ccc(Cn2ncc3cc(S(=O)(=O)c4ccc5c(c4)NCCO5)ccc3c2=O)n1 [Example 201, 6-((3,4-dihydro-2H-benzo[b][1,4]oxazin-6-yl)sulfonyl)-2-((1-methyl-1H-pyrazol-3-yl)methyl)phthalazin-1(2H)-one] | 2.9 | 140 | 103 | 27.9 |  |  |
